Consider one compound from patent US20250049735A1, “MEDICINE FOR STEATOHEPATITIS” (The University of Tokyo, priority 2021, published 2025).

Where two headings read alike, the source gives them in different places.

One assay concerns Atp8b1 E-KO mice. The conditions noted are these: mother mice fed 1% choline supplemented diet; pups at 4 weeks of age. The method, then: All animal experiments were approved by and performed in accordance with the guidelines of the animal experiment committee of the University of Tokyo. To generate Atp8b1^flox/flox mice, ICR and C57BL/6J mice were purchased from Charles River Laboratories International, Inc. (Yokohama, Japan). Mice were kept under pathogen-free conditions at a room temperature of 23.5° C.±2.5° C. and a relative humidity of 52.5%+12.5% under a 14-hour light: 10-hour dark cycle. […] In order to supplement choline to pups, mother mice were fed with a 1.0% choline supplemented diet (D20011404, Research Diets) until weaning of their pups.
Male mice harboring the designed floxed Atp8b1 allele with flox mutation were bred with female C57BL/6 mice, and the heterozygous floxed (Atp8b1^flox/+) mice in the obtained offsprings were intercrossed to produce homozygous floxed (Atp8b1^flox/flox) mice. The Atp8b1^flox/flox mice were crossed with villin-Cre transgenic mice (Stock No: 021504; The Jackson Laboratory, Bar Harbor, ME), and Atp8b1^flox/+; villin-Cre mice in the obtained offsprings were mated with Atp8b1^flox/flox mice to obtain intestinal epithelial cell (IEC)-specific Atp8b1 knockout (Atp8b1 IEC-KO; Atp8b1^flox/flox; villin-Cre) mice (Atp8b1 E-KO). Male Atp8b1 E-KO were mated with female Atp8b1^flox/flox mice, and the resulting Atp8b1 E-KO mice and littermate Atp8b1^flox/flox mice were used for animal experiments.
Male 3 to 4-week-old intestinal epithelial cell-specific Atp8b1 knockout (Atp8b1 E-KO) mice and control mice (littermate Flox/Flox mice) underwent laparotomy under isoflurane anesthesia. […] The blood was centrifuged at 1,700×g for 15 minutes, and plasma was separated. Thereafter, the plasma was flash-frozen in liquid nitrogen and was stored at −80° C. The liver was excised and was then flash-frozen in liquid nitrogen, and thereafter, the thus frozen liver was stored at −80° C., or was used for histological and electron microscopic analyses. The small intestine was excised, was then rinsed with cold PBS containing 0.5m M taurocholic acid, and was then used for histological and electron microscopic analyses, or for preparation of epithelial cells. To isolate epithelial cells from small intestine, TTDR kit (Becton Dickinson, Becton Drive Franklin Lakes, NJ) was used. According to the manufacturer's instructions included with the kit, the small intestine was opened longitudinally, was sliced into small fragments with a size of roughly 2 mm. The fragments were incubated with 1×TTDR diluted with DMEM (11995-065, gibco) at 37° C. for 30 minutes, and the resulting fragments were then mixed with 2 mM EDTA/PBS containing 1% BSA. The thus obtained mixture was filtrated through a 70 μm cell strainer (VWR21008-952; Corning Inc, Corning, NY), and was then centrifugated at 250×g at 4° C. for 10 minutes. The obtained cell pellets were incubated with 1×Pharm Lyse (Becton Dickinson, Becton Drive Franklin Lakes, NJ) at room temperature for 15 minutes for the lysis of red blood cells, and the resultant was then mixed with 2 mM EDTA/PBS containing 1% BSA. The thus obtained mixture was centrifuged at 250×g at 4° C. for 10 minutes. The prepared epithelial cells were flash frozen in liquid nitrogen, and were then stored at −80° C.
(§1) ALT and AST were determined by automatic measurement with Dri-chem (FUJIFILM, Tokyo, Japan).
The liver was cut into small pieces, was then fixed with 10% neutral buffered formalin, and was then embedded in paraffin. […]

The next assay deals with Tax-iIEC-KO mice. The note with it: for concentration of betaine in the liver / concentration of choline in the liver: compared with control mice.
Excerpt: Atp8b1^flox/flox mice were mated with villin-Cre/ERT2 transgenic mice (Stock No. 020282; The Jackson Laboratory), and Atp8b1^flox/+; villin-Cre/ERT2 mice in the obtained offsprings were then mated with Atp8b1^flox/flox mice to obtain Tamoxifen-induced, intestinal epithelial cell (IEC)-specific Atp8b1 knockout (Atp8b1Tax-iIEC-KO: Atp8b1^flox/flox; villin-Cre/ERT2) mice (Atp8b1 Tax-iIEC-KO mice). The resulting Atp8b1 Tax-iIEC-KO mice and littermate Atp8b1^flox/flox mice were used for animal experiments.
as §1
The liver was cut into small pieces, was then fixed with 10% neutral buffered formalin, and was then embedded in paraffin. The small intestine was rinsed with PBS, was fixed with 10% neutral buffered formalin, was then cut into 2 segments (corresponding to the proximal side and the distal side), and was then opened longitudinally. The thus cut small intestine was opened with a toothpick, was immobilized with a pathological pin, was then fixed with 10% neutral buffered formalin, and was then embedded in paraffin. Paraffin sections (3 μm each) were prepared, and were then deparaffinized and rehydrated. Thereafter, the resulting paraffin sections were stained with hemotoxylin and eosin, and were then mounted in Entellan new (Merck, Branchburg, NJ).
The concentrations of choline, betaine, dimethylglycine (N,N-dimethylglycine) and glycerophosphorylcholine (sn-glycero-3-phosphocholine) in plasma were determined by liquid chromatography/tandem mass spectrometry (LC/MS/MS) assay. The sample was mixed with 98-fold volume of ethanol and 1-fold volume of the internal standard (IS) solution (10 μmol/L choline in water, 10 μmol/L glycerophosphorylcholine in water, and 1 μmol/L betaine in water). After vortex mixing, the sample was centrifuged at 21,500×g at 4° C. for 5 minutes. The obtained supernatant was injected into a UHPLC Nexera liquid chromatography system (Shimadzu co., Kyoto, Japan) equipped with an Ascentis Express HILIC column (2.1×50 mm, 2.7 μm, Merck KGaA, Darmstadt, Germany), and was then maintained at 4° C. The analyte was separated from the internal standard by gradient elution of mobile phase A (10 mmol/L ammonium acetate in water) and of mobile phase B (acetonitrile/water mixture) (99:1, v/v)). The gradient elution was carried out under the following conditions: 0-2 min., 82.5% B; 2-4 min., 82.5% to 5% B and 4-7 min. 5% B with a flow rate of 0.6 mL/min. The eluate was directly subjected to electrospray ionization under a positive ion mode using a 5500QTRAP mass spectrometer (Sciex pte. ltd., Toronto, Canada). All target molecules were scanned by selected reaction monitoring (SRM) mode.
Eight-week-old Tax-iIEC-KO mice and control mice were started to be fed with a control diet, a 0.3% choline supplemented diet, or a 1% choline supplemented diet, and at the same time, the Tax-iIEC-KO mice and the control mice were administered with 1 mg/day of Tamoxifen for 5 consecutive days. Thereafter, the mice were dissected at 10 weeks of age.

Where [1] appears, read: 0.3% choline supplemented diet, 8 to 10 weeks of age.
Where [2] appears, read: choline supplemented diet (0.3% or 1%) from 8 to 10 weeks of age, Tamoxifen 1 mg/day for 5 days.

`C[N+](C)(C)CCO` [choline]: in the assay with Atp8b1 E-KO mice, the “amount of neutrophils (MPO positive cells) in the liver” value is on record as “reduced”, the “amount of tissue macrophages (F4/80 positive cells) in the liver” value is “reduced”, the body weight result was “No changes were observed” and the “increase in liver weight observed in Atp8b1 E-KO pups” value is on record as “resolved”. The small intestine length result in the assay with Atp8b1 E-KO mice was “No changes were observed”. In the assay with Tax-iIEC-KO mice (setting [1]), the “increase in liver injury markers (AST and ALT)” value was “suppressed”; the “onset of steatohepatitis (liver pathological images)” value is recorded as “suppressed”. Moreover, in the assay with Tax-iIEC-KO mice (0.3% choline supplemented diet), the “concentration of betaine in the liver” value is “recovered” and the “concentration of choline in the liver” value was “recovered”. For the same compound, the “increase in liver injury markers (AST and ALT)” value in the assay with Tax-iIEC-KO mice (1% choline supplemented diet, 8 to 10 weeks of age) was “suppressed”. In addition, in the assay with Tax-iIEC-KO mice (1% choline supplemented diet), the “concentration of betaine in the liver” value is on record as “recovered” and the “concentration of choline in the liver” value is on record as “recovered”. Further, in the assay on Tax-iIEC-KO mice (setting [2]), the body weight entry is “not changed” and the small intestine length result is “not changed”.
